Results from patent US20250353858A1, “CONDENSED HETEROCYCLIC COMPOUNDS AS INHIBITOR OF DIACYLGLYCEROL KINASES” (BEONE MEDICINES I GMBH, priority 2023, published 2025).

Legend:
DGKζ = DGKζ (Homo sapiens (Human), UniProt Q13574); assay: Biochemical DGK IC50 assay (ADP-Glo, lipid micelle substrate), DGKζ; conditions: full length DGKζ 0.5 nM, ATP 140 μM, DAG 80 μM
Experimental: (§1) Enzymatic reactions of DGKζ, DGKα and DGKδ were performed using ADP-Glo assay with lipid micelle substrate. […] Full length DGKα (D21-10BG, SignalChem) and full length DGKδ (D23-10G, SignalChem) were purchased. Lipid micelle was prepared by dissolving DAG (Sigma, 317505-10MG) and PS (Sigma, P7769-100MG) with chloroform which was furtherly removed by rotary evaporation. The resulted product was resuspended in buffer containing 25 mM HEPES pH 7.0, 0.5 mM EDTA and 160 mM Octyl β-D glucopyranoside by vigorous mixing and ultrasonic (IID, Scientz).
(§2) The inhibition activities testing for the compound disclosed herein were carried out at room temperature in assay buffer containing 50 mM HEPES, 10 mM MgCl2, 0.01% BSA, 0.1 mM Na3VO4, 0.005% Tween-20 and 0.01 mM CaCl2. Compounds in DMSO were dispensed into wells of a black 384 well plate (Corning 4514) using D300e digital dispenser (Tecan). […] 3 μL 2× enzyme solution was added to wells. […] After 1 hour reaction, 5 μL ADP-Glo reagent (Promga V9101) was added and incubated for 40 minutes. 10 μL Kinase Detection reagent was added and incubated for 30 minutes. Luminescence was measured on a microplate reader (PHERAstar FSX, BMG labtech). The IC50s are calculated based on inhibition of enzyme activity in the presence of increasing concentrations of compounds.
Human His-TEV-DGK-zeta-pFastBac1 and human baculovirus samples was generated using the Bac-to-Bac baculovirus expression system (Invitrogen) according to the manufacturer's protocol. The DNA used for expression of DGK-zeta, have SEQ ID Nos: 1. Baculovirus amplification was achieved using infected SF9 cells at 1:2000 virus/cells ratios, and grown for 96 hours at 27° C. post-transfected.
Full length human DGKζ produced as described above, was purified from Sf9 baculovirus-infected insect cell paste. The cells were lysed using sonication method, and the lysates were clarified by centrifugation.

DGKα = DGKα (Homo sapiens (Human), UniProt P23743); assay: Biochemical DGK IC50 assay (ADP-Glo, lipid micelle substrate), DGKα; conditions: full length DGKα […], ATP 140 μM, DAG 80 μM; note: full length DGKα 7.5 nM
Sequence of DGKα (P23743 whole entry): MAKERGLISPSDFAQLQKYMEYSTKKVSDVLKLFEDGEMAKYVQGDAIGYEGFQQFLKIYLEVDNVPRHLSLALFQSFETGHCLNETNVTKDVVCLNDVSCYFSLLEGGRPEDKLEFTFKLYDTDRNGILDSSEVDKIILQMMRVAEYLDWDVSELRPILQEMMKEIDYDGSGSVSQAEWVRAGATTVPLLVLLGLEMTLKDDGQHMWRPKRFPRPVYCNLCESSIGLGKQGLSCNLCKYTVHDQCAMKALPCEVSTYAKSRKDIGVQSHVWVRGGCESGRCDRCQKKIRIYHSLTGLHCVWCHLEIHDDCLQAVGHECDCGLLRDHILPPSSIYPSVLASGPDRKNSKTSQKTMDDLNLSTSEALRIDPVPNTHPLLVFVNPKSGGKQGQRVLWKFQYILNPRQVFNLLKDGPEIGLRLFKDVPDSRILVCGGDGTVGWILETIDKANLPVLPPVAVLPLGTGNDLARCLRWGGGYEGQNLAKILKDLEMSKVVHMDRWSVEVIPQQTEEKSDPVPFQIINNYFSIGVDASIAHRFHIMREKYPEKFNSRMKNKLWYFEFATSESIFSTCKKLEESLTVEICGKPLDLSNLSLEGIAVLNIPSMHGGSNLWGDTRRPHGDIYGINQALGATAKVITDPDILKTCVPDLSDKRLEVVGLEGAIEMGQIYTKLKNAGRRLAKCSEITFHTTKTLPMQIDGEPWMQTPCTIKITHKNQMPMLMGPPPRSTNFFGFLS
Experimental: as §1, §2

Sequence of DGKζ (Q13574 other isoform, or with tags, fused parts or gaps): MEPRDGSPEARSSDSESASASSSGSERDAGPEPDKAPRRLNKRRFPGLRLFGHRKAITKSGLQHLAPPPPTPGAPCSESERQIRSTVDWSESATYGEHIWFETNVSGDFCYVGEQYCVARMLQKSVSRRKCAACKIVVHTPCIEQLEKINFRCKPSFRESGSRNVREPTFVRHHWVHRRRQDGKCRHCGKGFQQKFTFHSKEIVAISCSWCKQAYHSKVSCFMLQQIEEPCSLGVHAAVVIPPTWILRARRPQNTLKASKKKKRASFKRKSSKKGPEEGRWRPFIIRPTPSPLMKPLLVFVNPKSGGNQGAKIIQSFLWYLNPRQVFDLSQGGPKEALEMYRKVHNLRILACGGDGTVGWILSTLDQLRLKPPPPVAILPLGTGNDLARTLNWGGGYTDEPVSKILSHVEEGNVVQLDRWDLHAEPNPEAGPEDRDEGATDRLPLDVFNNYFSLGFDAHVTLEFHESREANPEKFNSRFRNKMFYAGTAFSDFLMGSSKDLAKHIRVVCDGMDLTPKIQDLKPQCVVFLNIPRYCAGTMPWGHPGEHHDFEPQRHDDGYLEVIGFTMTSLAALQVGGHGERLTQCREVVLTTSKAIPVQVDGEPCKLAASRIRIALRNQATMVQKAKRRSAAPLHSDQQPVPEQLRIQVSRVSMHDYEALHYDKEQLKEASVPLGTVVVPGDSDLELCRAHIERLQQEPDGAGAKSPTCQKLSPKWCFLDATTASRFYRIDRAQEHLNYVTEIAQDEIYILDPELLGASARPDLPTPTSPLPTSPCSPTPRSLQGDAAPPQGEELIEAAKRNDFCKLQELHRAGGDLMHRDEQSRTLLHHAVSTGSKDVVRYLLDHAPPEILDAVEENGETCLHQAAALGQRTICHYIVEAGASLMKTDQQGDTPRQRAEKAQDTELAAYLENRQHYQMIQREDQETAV

Row | Compound | IC50 (DGKζ) | IC50 (DGKα)
1 | Cc1cnc2ccc(C(C)N3C[C@H](C)N(c4cc(=O)[nH]c5cc(CC#N)nn45)C[C@H]3C)cc2n1 (stereo partly drawn) [Compound A5, 2-(7-((2S,5R)-2,5-dimethyl-4-(1-(3-methylquinoxalin-6-yl)ethyl)piperazin-1-yl)-5-oxo-4,5-dihydropyrazolo[1,5-a]pyrimidin-2-yl)acetonitrile] | 100 nM | 116000 nM
2 | CC(c1ccc2ncc(C(F)F)nc2c1)N1C[C@H](C)N(c2cc(=O)n(C)c3cc(CC#N)nn23)C[C@H]1C (stereo partly drawn) [Compound A6, 2-(7-((2S,5R)-4-(1-(3-(difluoromethyl)quinoxalin-6-yl)ethyl)-2,5-dimethylpiperazin-1-yl)-4-methyl-5-oxo-4,5-dihydropyrazolo[1,5-a]pyrimidin-2-yl)acetonitrile] | 58 nM | 4640 nM
3 | COc1cnc2ccc(C(C)N3C[C@H](C)N(c4cc(=O)n(C)c5cc(CC#N)nn45)C[C@H]3C)cc2n1 (stereo partly drawn) [Compound A7, 2-(7-((2S,5R)-4-(1-(3-methoxyquinoxalin-6-yl)ethyl)-2,5-dimethylpiperazin-1-yl)-4-methyl-5-oxo-4,5-dihydropyrazolo[1,5-a]pyrimidin-2-yl)acetonitrile] | 23 nM | 16900 nM
4 | CC(c1ccc2ncc(Cl)nc2c1)N1C[C@H](C)N(c2cc(=O)n(C)c3cc(CC#N)nn23)C[C@H]1C (stereo partly drawn) [Compound A8, 2-(7-((2S,5R)-4-(1-(3-chloroquinoxalin-6-yl)ethyl)-2,5-dimethylpiperazin-1-yl)-4-methyl-5-oxo-4,5-dihydropyrazolo[1,5-a]pyrimidin-2-yl)acetonitrile] | 42 nM | 13300 nM
5 | CC(c1ccc2c(c1)OC(C)(C)CO2)N1C[C@H](C)N(c2c(C#N)c(=O)n(C)c3cc(CC#N)nn23)C[C@H]1C (stereo partly drawn) [Compound A12, 2-(cyanomethyl)-7-((2S,5R)-4-(1-(3,3-dimethyl-2,3-dihydrobenzo[b][1,4]dioxin-6-yl)ethyl)-2,5-dimethylpiperazin-1-yl)-4-methyl-5-oxo-4,5-dihydropyrazolo[1,5-a]pyrimidine-6-carbonitrile] | 29 nM | 6520 nM
6 | CC(c1ccc2c(c1)OCCO2)N1C[C@H](C)N(c2cc(=O)n(C)c3cc(CC#N)nn23)C[C@H]1C (stereo partly drawn) [Compound A13, 2-(7-((2S,5R)-4-(1-(2,3-dihydrobenzo[b][1,4]dioxin-6-yl)ethyl)-2,5-dimethylpiperazin-1-yl)-4-methyl-5-oxo-4,5-dihydropyrazolo[1,5-a]pyrimidin-2-yl)acetonitrile] | 53 nM | 10200 nM
7 | CC[C@H]1CN(C(C)c2ccc(F)cc2OC)[C@H](CC)CN1c1cc(=O)n(C)c2cc(CC#N)nn12 (stereo partly drawn) [Compound A16, 2-(7-((2S,5R)-2,5-diethyl-4-(1-(4-fluoro-2-methoxyphenyl)ethyl)piperazin-1-yl)-4-methyl-5-oxo-4,5-dihydropyrazolo[1,5-a]pyrimidin-2-yl)acetonitrile] | 100 nM | 27800 nM
8 | CC[C@H]1CN(C(C)c2ccc(F)cc2OC(F)F)[C@H](CC)CN1c1cc(=O)n(C)c2cc(CC#N)nn12 (stereo partly drawn) [Compound A17, 2-(7-((2S,5R)-4-(1-(2-(difluoromethoxy)-4-fluorophenyl)ethyl)-2,5-diethylpiperazin-1-yl)-4-methyl-5-oxo-4,5-dihydropyrazolo[1,5-a]pyrimidin-2-yl)acetonitrile] | 136 nM | 56700 nM
9 | CC[C@H]1CN(C(C)c2ccc(F)cc2C(F)F)[C@H](CC)CN1c1cc(=O)n(C)c2cc(CC#N)nn12 (stereo partly drawn) [Compound A18, 2-(7-((2S,5R)-4-(1-(2-(difluoromethyl)-4-fluorophenyl)ethyl)-2,5-diethylpiperazin-1-yl)-4-methyl-5-oxo-4,5-dihydropyrazolo[1,5-a]pyrimidin-2-yl)acetonitrile] | 28 nM | 15700 nM
10 | CC[C@H]1CN(C(C)c2ccncc2)[C@H](CC)CN1c1cc(=O)n(C)n2cc(CC#N)nc12 (stereo partly drawn) [Compound A19, 2-(8-((2S,5R)-2,5-diethyl-4-(1-(pyridin-4-yl)ethyl)piperazin-1-yl)-5-methy-6-oxo-5,6-dihydroimidazo[1,2-b]pyridazin-2-yl)acetonitrile] | 7900 nM | 161 nM
11 | CC[C@H]1CN(C(C)c2ccc(C3CC3)cc2F)[C@H](CC)CN1c1cc(=O)n(C)c2cc(CC#N)nn12 (stereo partly drawn) [Compound A21, 2-(7-((2S,5R)-4-(1-(4-cyclopropyl-2-fluorophenyl)ethyl)-2,5-diethylpiperazin-1-yl)-4-methyl-5-oxo-4,5-dihydropyrazolo[1,5-a]pyrimidin-2-yl)acetonitrile] | 717 nM | 2940 nM
12 | CC[C@H]1CN(C(C)c2ccc(C3CC3)nc2)[C@H](CC)CN1c1cc(=O)n(C)c2cc(CC#N)nn12 (stereo partly drawn) [Compound A23, 2-(7-((2S,5R)-4(1-(6-cyclopropylpyridin-3-yl)ethyl)-2,5-diethylpiperazin-1-yl)-4-methyl-5-oxo-4,5-dihydropyrazolo[1,5-a]pyrimidin-2-yl)acetonitrile] | 105 nM | 913 nM
13 | CC[C@H]1CN(C(C)c2ccc(OC(C)C)cn2)[C@H](CC)CN1c1cc(=O)n(C)c2cc(CC#N)nn12 (stereo partly drawn) [Compound A25, 2-(7-((2S,5R)-2,5-diethyl-4-(1-(5-isopropoxypyridin-2-yl)ethyl)piperazin-1-yl)-4-methyl-5-oxo-4,5-dihydropyrazolo[1,5-a]pyrimidin-2-yl)acetonitrile] | 175 nM | 148 nM
14 | CC[C@H]1CN(C(C)c2ccc(C3CC3)nc2F)[C@H](CC)CN1c1cc(=O)n(C)c2cc(CC#N)nn12 (stereo partly drawn) [Compound A26, 2-(7-((2S,5R)-4-(1-(6-cyclopropyl-2-fluoropyridin-3-yl)ethyl)-2,5-diethylpiperazin-1-yl)-4-methyl-5-oxo-4,5-dihydropyrazolo[1,5-a]pyrimidin-2-yl)acetonitrile] | 61 nM | 1200 nM
15 | CC[C@H]1CN(C(C)c2ccc3nc(C)sc3c2)[C@H](CC)CN1c1cc(=O)n(C)c2cc(CC#N)nn12 (stereo partly drawn) [Compound A31, 2-(7-((2S,5R)-2,5-diethyl-4-(1-(2-methylbenzo[d]thiazol-6-yl)ethyl)piperazin-1-yl)-4-methyl-5-oxo-4,5-dihydropyrazolo[1,5-a]pyrimidin-2-yl)acetonitrile] | 80 nM | 617 nM
16 | CC[C@H]1CN(C(C)c2ccc3nc(C)sc3n2)[C@H](CC)CN1c1c(F)c(=O)n(C)c2cc(CC#N)nn12 (stereo partly drawn) [Compound A36, 2-(7-((2S,5R)-2,5-diethyl-4-(1-(2-methylthiazolo[5,4-b]pyridin-5-yl)ethyl)piperazin-1-yl)-6-fluoro-4-methyl-5-oxo-4,5-dihydropyrazolo[1,5-a]pyrimidin-2-yl)acetonitrile] | 629 nM | 1580 nM
17 | CCC(c1ccn2nc(C)cc2n1)N1C[C@H](C)N(c2cc(=O)n(C)c3cc(CC#N)nn23)C[C@H]1CC (stereo partly drawn) [Compound A43, 2-(7-((2S,5R)-5-ethyl-2-methyl-4-(1-(2-methylpyrazolo [1,5-a]pyrimidin-5-yl)propyl)piperazin-1-yl)-4-methyl-5-oxo-4,5-dihydropyrazolo [1,5-a]pyrimidin-2-yl)acetonitrile] | 266 nM | 267 nM
18 | CC[C@H]1CN(C(C)c2ccn3ncc(F)c3n2)[C@H](CC)CN1c1nc(=O)n(C)c2cc(CC#N)nn12 (stereo partly drawn) [Compound A50, 2-(4-((2S,5R)-2,5-diethyl-4-(1-(3-fluoropyrazolo[1,5-a]pyrimidin-5-yl)ethyl)piperazin-1-yl)-1-methyl-2-oxo-1,2-dihydropyrazolo[1,5-a][1,3,5]triazin-7-yl)acetonitrile] | 38 nM | 55 nM
